Measurements reported in US12053446B1, “Methods for the prevention and treatment of hearing loss using Oseltamivir” (Ting Therapeutics LLC, priority 2022, dated 2024).

How the values were obtained:
[1] = test system: inner ear cell line HEI-OC1; experiment: high-throughput screen of FDA-approved drugs for cisplatin-induced cell-death protection; format: cell-based; conditions: 1,300 FDA-approved drugs screened
Description: Oseltamivir is an oral widely used anti-viral drug. Significant protection by Oseltamivir against hearing loss is shown herein in doses equivalent to those approved for human use.

adult P42 FVB mice [2] = experiment: noise-induced hearing loss in adult mice, Oseltamivir treatment 24 hours after noise exposure; format: in vivo, mouse
Description: The experimental procedures for the data shown in FIGS. 2A-B are as follows: Animals were anesthetized with avertin. Subcutaneous needle electrodes were inserted behind the pinna (inverting), vertex of the skull (non-inverting) and base of the tail (ground). Tone bursts of 5 ms duration with 0.5 ms cosine-squared envelopes delivered at a rate of 21 stimuli per second with alternating polarity were generated using BioSigRZ software and RZ6 multi I/O processor system (Tucker-Davis Technologies, FL). Stimuli were presented as open field via a speaker (MF1: TDT, FL) placed 10 cm in front of the pinna of the animal. Evoked responses were amplified (20×), bandpass filtered (300-3,000 Hz) and average of 512 responses of 10 ms duration was recorded. Stimulus intensity was decreased in 5 dB increments, starting from 100 dB SPL to 0 dB SPL. Thresholds at 4, 5.6, 8, 16, 22.6, 32, 45.2, and 64 kHz were identified by visual inspection from stacked waveforms as the lowest level at which reproducible response could be identified. Before the start of every session, stimulus presenting speaker (MF1) was calibrated with a ¼″ microphone (PCB-378C10; PCB Piezotronics, NY) that was also placed 10 cm in front of the speaker. Similar experiments have been previously described in Rai V. et al., Sci Rep. 2020 Sep. 16; 10(1):15167.
Now referring to FIG. 3A, adult P42 FVB mice began treatment with Oseltamivir administered oral gavage at 100 mg/kg body weight twice daily for three days beginning 24 hours following noise exposure of 100 dB, 8-16 kHz octave band, for two hours. Now referring to FIG. 3B, auditory brainstem response (ABR) were recorded 14 days after noise exposure of 100 dB, 8-16 kHz octave band, for two hours. […] Control is shown as carrier. Statistical analysis was done with repeated measures ANOVA between groups. Mean±SEM, P=**<0.01, ***<0.001, compared to noise alone by two-way ANOVA with Bonferroni post-hoc test.
Now referring to […], amplitudes of auditory Brainstem Response wave 1 from auditory brainstem response recording of FIG. 3A. The auditory Brainstem Response wave-1 amplitude represents the summed activity of the cochlear nerve. Mean wave-1 amplitudes was measured in the control and Oseltamivir-treated mice before and after noise exposure. Amplitudes from the 90 dB SPL stimuli were compared between groups using a two-factor ANOVA (group× frequency), and difference was detected between the noise alone group to Oseltamivir plus noise. at 14 days post-noise exposure.
Now referring to FIG. 3D, Distortion Product Otoacoustic Emissions (DPOAE) threshold shifts were measured in adult FVB mice 14 days after noise exposure of 100 dB, 8-16 kHz octave band, for two hours. DPOAE audiograms provide a direct indicator of cochlear sensitivity at the level of the OHC. […] Control is shown as carrier. Statistical analysis was done with repeated measures ANOVA between groups. Mean±SEM, P=**<0.01, ***<0.001, compared to noise alone by two-way ANOVA with Bonferroni post-hoc test.
Now referring to FIG. 3F, Oseltamivir administered post-noise exposure is shown to increase number of CtBP2 puncta. Number of CtBP2 puncta per IHC at the 16 kHz cochlear region were counted, data shown as mean±SEM, P=**<0.01, ***<0.001 by one-way ANOVA with Bonferroni post-hoc test, n=6-7 cochleae. An average of 4 CtBP2 puncta per IHC are restored compared to group exposed to noise without Oseltamivir treatment.
Experimental procedure for distortion product otoacoustic emissions (DPOAE) measurements, primary tones were set to generate 2f1-f2 distortion products at frequencies between 1 and 50 kHz, DPOAEs were measured for levels of f1 ranging from 10 to 80 dB SPL, with the levels of the f2 tone set 10 dB below that of the f1 tone. Similar experiments are described in Lukashkina A. V. et al., Scientific reports, July 12; 7(1), 5185. (2017). Similar Ctpb2/MyosinVI experiments are described in Liu Z et al., PLoS One. Feb. 20, 2014; 9(2):e89377 (2014).

[3] = test system: adult 12 weeks old CBA/CaJ mice; experiment: cisplatin-induced hearing loss in adult mice, multi-dose cisplatin regimen; format: in vivo, mouse
Experimental: Now referring to FIG. 4B, mice exposed to multi-dose cisplatin treatments show reduced reduction in wave 1 amplitude 16 kHz recording form 30-90 dB SPL, and Oseltamivir treatment at the dose of 50 mg/kg increased the 16-kHz wave-1 amplitude at 90 SPL.
Now referring to FIG. 4C, Oseltamivir (10 mg/kg and 50 mg/kg doses) increased the percent of total mice surviving 40 days after beginning of cisplatin exposure. Auditory Brainstem Response threshold shifts recorded as previously described. Similar wave-1 amplitude recordings have been described Hazlitt J et al., Med. Chem. 61, 7700-7709 (2018); Teitz et al., J. Exp. Med. 215, 1187-1203 (2018).
Now referring to FIG. 5A, confocal images of myosin-VI stained basal, middle, apical turn cochlear regions show outer hair cells of mice exposed to treatment of 50 mg/kg Oseltamivir alone or exposed to cisplatin with or without treatment of 10 or 50 mg/kg Oseltamivir. Now referring to FIG. 5B, count of outer hair cells per 160 μm for cochlear regions. Mean±SEM, P=*<0.05, **<0.01, compared to noise alone by two-way ANOVA with Bonferroni post-hoc test. N=5 cochleae counted per bar. Similar Myosin VI experiments are described in Liu Z et al., PLoS One. Feb. 20, 2014; 9(2):e89377 (2014).

[4] = test system: P3 FVB mouse cochlear explants; experiment: cisplatin-induced hair cell death in P3 FVB mouse cochlear explants; format: cell-based
Experimental: Now referring to FIG. 1A, a representation of the chemical structure of Oseltamivir phosphate is shown. […] The explants were treated for 24 hours. […] Percent protection for compound at the tested dosages were then plotted to show dose response curves, and IC50 were calculated.
Experimental procedures for the images shown in FIG. 1C are as follows: Mice were approved by the Institutional Animal Care and Use Committee (IACUC) at the Creighton University. Inner ears were collected from the post-natal day 3 (P3) FVB mice and transferred onto a filter (Millicell, PICM03050; Millipore) soaked in culturing medium. The filter was placed in 6-well culture plates with 1.2 mL medium outside the filter. […] Cells may be maintained in culture with the aid of Matrigel as previously described in Kelley and Driver, Curr. Protoc. Neurosci.

adult P42 FVB mice [5] = experiment: noise-induced hearing loss in adult mice, Oseltamivir pre-treatment before noise exposure; format: in vivo, mouse
Experimental: Now referring to FIG. 2A, adult P42 FVB mice began treatment with Oseltamivir administered oral gavage at 100 mg/kg body weight twice daily for three days once 45 minutes before exposure and then for two days after noise exposure. Now referring to FIG. 2B, auditory brainstem response (ABR) were recorded 14 days after noise exposure of 100 dB, 8-16 kHz octave band, for two hours. […] Control is shown as carrier. Statistical analysis was done with repeated measures ANOVA between groups. Mean±SEM, P=**<0.01, ***<0.001, compared to noise alone by two-way ANOVA with Bonferroni post-hoc test.
The experimental procedures for the data shown in FIGS. 2A-B are as follows: Animals were anesthetized with avertin. Subcutaneous needle electrodes were inserted behind the pinna (inverting), vertex of the skull (non-inverting) and base of the tail (ground). Tone bursts of 5 ms duration with 0.5 ms cosine-squared envelopes delivered at a rate of 21 stimuli per second with alternating polarity were generated using BioSigRZ software and RZ6 multi I/O processor system (Tucker-Davis Technologies, FL). Stimuli were presented as open field via a speaker (MF1: TDT, FL) placed 10 cm in front of the pinna of the animal. Evoked responses were amplified (20×), bandpass filtered (300-3,000 Hz) and average of 512 responses of 10 ms duration was recorded. […]

CCOC(=O)C1=C[C@@H](OC(CC)CC)[C@H](NC(C)=O)[C@@H](N)C1 [Oseltamivir, oseltamivir phosphate]
hit in screen for cisplatin-induced cell-death protection [1]: one of the best hits | ABR threshold shift vs noise-exposed control (adult P42 FVB mice [2]; 100 mg/kg oral twice daily, three days, beginning 24 hours after noise, 14 days after noise): Significant protection against hearing loss | loss of CtBP2-puncta in inner hair cells vs noise alone (adult P42 FVB mice [2]; 16 kHz cochlear region): partially restores | CtBP2 puncta per IHC restored vs noise without Oseltamivir (adult P42 FVB mice [2]; 16 kHz cochlear region, post-noise administration, average): 4 | ABR wave-1 amplitude vs noise exposure only group (adult P42 FVB mice [2]; 16 kHz, 90 dB SPL, 14 days post-noise exposure): higher amplitudes | DPOAE threshold shift vs noise-exposed control (adult P42 FVB mice [2]; 14 days after noise exposure of 100 dB, 8-16 kHz, two hours): Significant protection against hearing loss | protection, auditory Brainstem Response and DPOAE measurements (adult P42 FVB mice [2]; oral, 45 minutes before noise exposure and 24 hours after noise exposure, three consecutive days): 20-28 dB | protection against noise-induced hearing loss (ABR threshold shift) (adult P42 FVB mice [2]; treatment 24 hours after noise exposure, 100, 50 and 10 mg/kg, 8, 16, 32 kHz): protects | 16-kHz wave-1 amplitude ([3]; 50 mg/kg Oseltamivir, 90 SPL, multi-dose cisplatin): increased | auditory brainstem response threshold shift vs cisplatin without treatment ([3]; 8, 16, and 32 kHz, 10 and 50 mg/kg Oseltamivir oral twice-daily, cisplatin 3 mg/kg IP, 3 cycles): lower | percent of total mice surviving ([3]; 40 days after beginning of cisplatin exposure, 10 mg/kg and 50 mg/kg): increased | outer hair cells, Myosin VI stained basal, middle, apical cochlear regions ([3]; multi-dose cisplatin regimen, 10 or 50 mg/kg Oseltamivir): preserved outer hair cells in all regions | protection against cisplatin induced hair cell loss, phalloidin-stained middle turn images ([4]; 3 μM Oseltamivir and 150 μM Cisplatin): shows protection | IC50 ([4]; Mus musculus, Oseltamivir added 1 h before cisplatin (150 μM), 24 h, read-out: IC50 (percent protection from cisplatin-induced hair cell death)): 450 nM | LD50 ([4]; Oseltamivir alone, cochlear explants, 24 h): > 100 µM | protection, auditory brainstem response measurements (adult P42 FVB mice [5]; 100 mg/kg oral gavage twice daily for three days, first dose 45 minutes before noise (100 dB, 8-16 kHz, two hours), ABR 14 days after noise): 24-28 dB | ABR threshold shift vs noise-exposed control (adult P42 FVB mice [5]; 100 mg/kg oral twice daily, three days, starting 45 minutes before noise, 14 days after noise): Significant protection against hearing loss
